Values of other authors, collected in publication PMC11187573, “Identification of SARS-CoV-2 Mpro inhibitors through deep reinforcement learning for de novo drug design and computational chemistry approaches” (RSC Medicinal Chemistry, 2024).
pIC50: −log10 of the molar value.

System: Mpro
Conditions: ML dataset, Origin COVID_Moonshot; ref COVID Moonshot; cited from earlier work
For `CN(C)C(=O)C[C@@]1(C(=O)Nc2cncc3ccccc23)CCOc2ccc(Cl)cc21` [MAT-POS-f9802937-4], the pIC50 is listed as 4.69.
For `O=C(c1cc(=O)[nH]c2ccccc12)N1CCN(c2cccc(C(F)(F)F)c2)CC1` [ERI-UCB-a0b0dbcb-4], the pIC50 is given as 5.33.
In the case of `COc1c(Cl)cccc1OCCNC(=O)c1cc(=O)[nH]c2ccccc12` [ALP-POS-3fc1724e-1], the pIC50 is listed as 4.94.
In the case of `CC(C)(C)c1ccc(N(C(=O)c2nccs2)C(C(=O)NCCc2cccc(F)c2)c2cccnc2)cc1` (stereo not drawn) [ALP-POS-02c6a514-49], the pIC50 is given as 6.10.
For `O=C(Nc1cnccc1CO)C1COc2ccc(Cl)cc21` (stereo not drawn) [JAG-UCB-a3ef7265-3, Mpro-x10338], the pIC50 is given as 4.52.
For `COc1ccccc1N1CCN(C(=O)c2cc(=O)[nH]c3ccccc23)CC1` [BEN-DND-7e92b6ca-13], the pIC50 is listed as 4.48.
In the case of `O=C(Cc1cc(Cl)ccc1Cl)Nc1cncc2ccccc12` [PET-UNK-dd44aeb6-2], the pIC50 is listed as 5.99.
For `O=C(c1cc(=O)[nH]c2ccccc12)N1CCN(Cc2ccccc2)CC1` [BEN-DND-7e92b6ca-10], the pIC50 is listed as 4.86.
In the case of `Cc1ccncc1C(C(=O)NCCc1cccc(F)c1)N(C(=O)c1cocn1)c1ccc(C(C)(C)C)cc1` (stereo not drawn) [ALP-POS-d0876c20-1], the pIC50 is given as 6.19.
In the case of `O=C(Cc1ccc(Cl)c(F)c1)Nc1cncc2ccccc12` [RAL-THA-2d450e86-9], the pIC50 is listed as 5.69.
For `O=C1CCCCN1c1ccc(N(Cc2ccccc2)C(=O)Cc2n[nH]c3ccccc23)cc1` [ALP-POS-a3de0cb1-16], the pIC50 is listed as 4.40.
In the case of `CN(C)C(C(=O)Nc1cncc2ccccc12)c1ccc(Cl)c(Cl)c1` (stereo not drawn) [MAT-POS-1f3f1a6f-2], the pIC50 is listed as 5.37.
For `O=C(c1cc(=O)[nH]c2ccccc12)N1CCN(c2ccccc2)CC1` [MAT-POS-916a2c5a-4], the pIC50 is given as 4.72.
For `O=C(Cc1cccc(Cl)c1)Nc1[nH]nc2cccc(F)c12` [EDJ-MED-c8e7a002-13], the pIC50 is given as 4.04.
For `Cc1ccncc1NC(=O)Cc1cccc(Cl)c1`, the pIC50 is given as 4.72.
For `Cn1nncc1CC(=O)NC(c1ccccc1)c1nc2ccccc2n1C` (stereo not drawn) [BAR-COM-4e090d3a-6], the pIC50 is listed as 4.45.
For `CCOc1c(Cl)cccc1CC(=O)Nc1cncc2ccccc12` [MAT-POS-fce787c2-1], the pIC50 is listed as 5.16.
In the case of `O=C(Nc1cncc2ccccc12)C1COc2c(Cl)cccc21` (stereo not drawn) [FRA-DIA-c7e803f4-1], the pIC50 is listed as 5.30.
For `COc1nccnc1C(C(=O)NCCc1cccc(F)c1)N(C(=O)c1cocn1)c1ccc(C(C)(C)C)cc1` (stereo not drawn) [ALP-POS-d0876c20-15], the pIC50 is given as 4.02.
In the case of `CC(C)(C)c1ccc(N(C(=O)c2ccco2)C(C(=O)NCCN2CCOCC2)c2cccnc2)cc1` (stereo not drawn) [ALP-POS-02c6a514-55], the pIC50 is listed as 5.66.
In the case of `CC(C)(C)c1ccc(N(C(=O)c2cocn2)C(C(=O)NCCN2CCOCC2)c2cccnc2)cc1` (stereo not drawn) [ALP-POS-88a7a97e-47], the pIC50 is given as 4.08.
In the case of `CCCCOc1ccc(Cl)cc1CC(=O)Nc1cnccc1C`, the pIC50 is given as 4.69.
In the case of `CC(C)(C)c1ccc(N(C(=O)c2cocn2)C(C(=O)NCC(=O)OCc2ccccc2)c2cccnc2)cc1` (stereo not drawn) [ALP-POS-88a7a97e-44], the pIC50 is given as 5.00.
For `Cc1ccncc1NC(=O)C(C)c1cccc(C#N)c1` (stereo not drawn), the pIC50 is listed as 4.30.
In the case of `Cc1ccncc1NC(=O)Cc1cc(Cl)cc(NC2CC2C(F)(F)F)c1` (stereo not drawn), the pIC50 is given as 4.65.
In the case of `Cc1ccncc1NC(=O)C1CCOc2ccc(Cl)cc21` (stereo not drawn), the pIC50 is listed as 4.80.
For `N#Cc1ccc(N(C(=O)c2ccco2)C(C(=O)NCCc2cccc(F)c2)c2cccnc2)cc1` (stereo not drawn) [ALP-POS-b0bc6a46-24], the pIC50 is given as 4.98.
For `Cn1ncc2cc(N(C(=O)c3cocn3)C(C(=O)NCCc3cccc(F)c3)c3cccnc3)ccc21` (stereo not drawn) [ALP-POS-ced8ea4d-8], the pIC50 is listed as 4.32.
In the case of `Cc1ccncc1N1CCC(c2cccc(Cl)c2)C1=O` (stereo not drawn) [EDJ-MED-e66f2cc5-1], the pIC50 is listed as 4.54.
For `CC(C)(C)c1ccc(N(C(=O)c2c[nH]nn2)C(C(=O)NCCc2cccc(F)c2)c2cccnc2)cc1` (stereo not drawn) [ALP-POS-305f6ec3-14], the pIC50 is given as 5.93.
In the case of `CC(C)(C)c1ccc(N(C(=O)c2cnco2)C(C(=O)NCCc2cccc(F)c2)c2cccnc2)cc1` (stereo not drawn) [ALP-POS-305f6ec3-49], the pIC50 is listed as 5.32.
For `Cc1ccncc1N1CCN(c2cccc(Cl)c2)C1=O`, the pIC50 is given as 4.04.
In the case of `CNc1ccc(N(C(=O)Cn2nnc3ccccc32)c2cccc(Cl)c2)cc1` [MAT-POS-06036648-5], the pIC50 is listed as 5.10.
In the case of `COc1cc(Cl)cc(CC(=O)Nc2cnccc2C)c1`, the pIC50 is listed as 4.40.
In the case of `Cc1ccncc1NC(=O)Cc1cc(Cl)cc(NC2CCCC2O)c1` (stereo not drawn), the pIC50 is given as 4.53.
In the case of `Cc1cc(NC(=O)Cc2cncnc2)cc(OC2CC(=O)N2)c1` (stereo not drawn), the pIC50 is given as 4.46.
For `CS(=O)(=O)Cc1ccc(N(C(=O)c2c[nH]cn2)C(C(=O)NCCc2cccc(F)c2)c2cccnc2)cc1` (stereo not drawn) [BRU-THA-92256091-20], the pIC50 is listed as 4.39.
For `O=C(Nc1ccc(Cl)cc1)[C@@H](c1ccccc1)N1Cc2ccccc2C1=O` [LON-WEI-b2874fec-16], the pIC50 is listed as 4.08.
For `O=C(Cc1cncc2ccccc12)Nc1cccc(Cl)c1` [PET-UNK-8922bd3c-1], the pIC50 is listed as 5.17.
For `CC(C)(C)c1ccc(N(C(=O)c2ccco2)C(C(=O)Nc2ccccc2)c2cccnc2)cc1` (stereo not drawn) [ALP-POS-02c6a514-56], the pIC50 is given as 4.95.
For `Cc1ccccc1CC(=O)Nc1cncc2ccccc12` [RAL-THA-2d450e86-38], the pIC50 is given as 4.53.
In the case of `Cc1ccncc1CC(=O)Nc1cccc(Cl)c1`, the pIC50 is listed as 4.55.
For `CC(C)(C)c1ccc(N(C(=O)c2cocn2)C(C(=O)NC2CCOCC2)c2cccnc2)cc1` (stereo not drawn) [ALP-POS-88a7a97e-9], the pIC50 is listed as 5.41.
For `Cc1ccncc1NC(=O)Cc1cccc(Br)c1`, the pIC50 is given as 4.74.
For `CC(C)(C)c1ccc(N(C(=O)c2ccco2)C(C(=O)NCc2ccccc2)c2cccnc2)cc1` (stereo not drawn) [ALP-POS-02c6a514-57], the pIC50 is listed as 5.36.
In the case of `CC(C)S(=O)(=O)c1ccc(N(C(=O)c2cocn2)C(C(=O)NCCc2cccc(F)c2)c2cccnc2)cc1` (stereo not drawn) [ALP-POS-ced8ea4d-5], the pIC50 is given as 4.18.
In the case of `CC(C)(C)c1ccc(N(C(=O)c2cocn2)C(C(=O)NC2CC(F)(F)C2)c2cccnc2)cc1` (stereo not drawn) [ALP-POS-88a7a97e-39], the pIC50 is given as 5.63.
In the case of `CN(C)C(=O)CC1(C(=O)Nc2cncc3ccccc23)CCOc2ccc(Cl)cc21` (stereo not drawn) [MAT-POS-5d65ec79-1], the pIC50 is listed as 5.53.
For `CNC(=O)Nc1ccc(N(Cc2ccsc2)C(=O)Cn2nnc3ccccc32)cc1` [ROB-IMP-e811baff-1], the pIC50 is given as 5.08.
For `O=C(CC1(C(=O)Nc2cncc3ccccc23)CCOc2ccc(Cl)cc21)N1CCN(C2CCOC2)CC1` (stereo not drawn) [ALP-POS-5bb456a5-7], the pIC50 is given as 5.17.
In the case of `O=C(Cc1ccc(Cl)c(Cl)c1)Nc1cncc2ccncc12` [VLA-UNK-82501c2c-2], the pIC50 is listed as 5.75.
In the case of `COC(=O)C1(NC(=O)C(c2cccnc2)N(C(=O)c2cocn2)c2ccc(C(C)(C)C)cc2)CCCC1` (stereo not drawn) [ALP-POS-88a7a97e-36], the pIC50 is listed as 5.28.
For `COc1ccccc1CC(=O)Nc1cncc2ccccc12` [RAL-THA-2d450e86-39], the pIC50 is given as 4.46.
For `CC(C)(C)c1ccc(N(C(=O)c2cocn2)C(C(=O)NCC2CCCO2)c2cccnc2)cc1` (stereo not drawn) [ALP-POS-88a7a97e-27], the pIC50 is listed as 5.29.
For `N#Cc1cccc(NC(=O)Nc2cncc(N)c2)c1` [DAR-DIA-23aa0b97-8], the pIC50 is listed as 4.27.

Same assay, conditions: ML dataset, Origin ChEMBL; ref ChEMBL; cited from earlier work
In the case of `CSc1[nH]nc(NC(=O)c2cccs2)c1S(=O)(=O)c1ccccc1` [CHEMBL378700], the pIC50 is listed as 4.82.
In the case of `Nc1ccc2cc3ccc(N)cc3nc2c1` [CHEMBL465704, CHEMBL55400], the pIC50 is listed as 6.23.
For `O=C(Oc1cncc(Cl)c1)c1ccc(-c2ccc(Cl)cc2)o1` [CHEMBL222769, O=C(c1ccc(-c(cc2)ccc2Cl)o1)Oc1cc(Cl)cnc1, reference compound], the pIC50 is listed as 7.20.
For `O=C(Oc1cncc(Cl)c1)c1cscn1` [CHEMBL222628, O=C(c1cscn1)Oc1cc(Cl)cnc1, reference compound], the pIC50 is given as 6.57.
In the case of `CCOC(=O)Cc1ccc(-c2ccccc2)cc1` [CHEMBL1886408, CCOC(Cc(cc1)ccc1-c1ccccc1)=O, reference compound], the pIC50 is listed as 6.70.
